These results are taken from US9234018B2, “Compositions and methods for the treatment of VprBP-related cancers” (University of Southern California, priority 2013, dated 2016).

A word on the IC50: it is the midpoint of a concentration-inhibition curve.

Assay [1] has as its target CSNK1D (Homo sapiens, UniProt P48730). The experiment in a line: Kinase selectivity panel. The assay is classed as biochemical.
Assay [2] concerns VprBP target genes in DU145 cells. Nature of the assay: qRT-PCR of VprBP target genes. In kind it is cell-based, human. As to conditions: B32B3 1 mM. As for the experimental part: Total RNA was isolated from mock- or VprBP-depleted cells using the TRIzol reagent according to the manufacturer's instructions (Invitrogen). Gene expression microarray experiments were conducted using a whole-genome expression array (Human HT-12 v4 Expression BeadChip, Illumina). This high density oligonucleotide array chip targets more than 47000 probe sequences derived from National Center for Biotechnology Information Reference Sequence (NCBI) RefSeq Release 38 (Nov. 7, 2009) and other sources. Data were processed and analyzed by the ArrayPipe software (www.pathogenomics.ca/arraypipe). For qRT-PCR, total RNA was extracted as described for microarray and subjected to RT reactions with the use of PerfeCta® SYBR Green FastMix (Quanta BIOSCIENCES) and an iCycler IQ5 real time cycler (Bio-Rad). The specificity of the amplification reactions were monitored by melting curve analysis. Assays were normalized to β-actin mRNA levels. The following primers were used for qRT-PCR: […]
In general terms: Real-time PCR tracks product formation cycle by cycle.

Assay [3] has as its target AURKB (Homo sapiens, UniProt Q96GD4). Nature of the assay: Kinase selectivity panel. The assay is classed as biochemical.
In assay [4] the target is HCK (Homo sapiens, UniProt P08631). Nature of the assay: Kinase selectivity panel. In kind it is biochemical.
Assay [5] concerns H2AT120p and VprBP at target genes in DU145 cells. The experiment in a line: Chromatin immunoprecipitation (ChIP) at VprBP target genes. In kind it is cell-based, human. The settings on record: B32B3 1 mM. The procedure: Mock-depleted or VprBP-depleted DU145 cells were grown to 70-80% confluence, cross-linked with 1% formaldehyde for 10 min, and processed for ChIP as recently described (Kim, K. et al. (2012) Mol. Cell Biol. 32:783-796). […] All samples were run in triplicate and results were averaged. Sequences of the primers used for quantitative real time PCR (qPCR) are as follows: […]

For assay [6], the target named is PLK1 (Homo sapiens, UniProt P53350). The experiment in a line: Kinase selectivity panel. The assay is classed as biochemical.
In assay [7] the target is CDK18 (Homo sapiens, UniProt Q07002). The experiment in a line: Kinase selectivity panel. The assay is classed as biochemical.
Assay [8] has as its target PKN2 (Homo sapiens, UniProt Q16513). Nature of the assay: Kinase selectivity panel. In kind it is biochemical.
Assay [9] has as its target CSK1E (Homo sapiens, UniProt P49674). Nature of the assay: Kinase selectivity panel. The assay is classed as biochemical.
In assay [10] the target is SYK (Homo sapiens, UniProt P43405). The experiment in a line: Kinase selectivity panel. The assay is classed as biochemical.
The target of assay [11] is PKM2 (Homo sapiens, UniProt P14618). The experiment in a line: Kinase selectivity panel. The assay is classed as biochemical.
The target in assay [12] is AKT1 (Homo sapiens, UniProt P31749). Nature of the assay: Kinase selectivity panel. In kind it is biochemical.
Assay [13] deals with AURKA (Homo sapiens, UniProt O14965). The experiment in a line: Kinase selectivity panel. In kind it is biochemical.
Assay [14] has as its target AKT3 (Homo sapiens, UniProt Q9Y243). The experiment in a line: Kinase selectivity panel. In kind it is biochemical.
Assay [15] has as its system DU145 cells. Nature of the assay: Cell proliferation (MTT) and soft agar colony formation. The assay is classed as cell-based, human. The settings on record: MTT 72 h and soft agar colonies. As for the experimental part: Cell proliferation was assessed by the 3-(4,5-dimethylthiazol-2-yl)-2,5-diphenyltetrazolium bromide (MTT) assay as previously described (Kim, K. et al. (2012) Mol. Cell Biol. 32:783-796). To evaluate IC50 of compound B32B3 and B20H6, DU145 cells were treated with various concentrations (0.001, 0.005, 0.01, 0.05, 0.1, 1, 5, 10, and 20 μM) of compounds for 72 h and viability was measured by MTT assays. For soft agar colony formation assays, DU145 cells were treated with B32B3 (0.5, 1, and 3 μM). Cells were suspended in semisolid medium (DMEM 10% FBS plus 0.3% ultra pure noble agar) at concentrations of 2×10^5 cells/ml, added over a layer of 0.6% agar in RPMI on 35 mm plate and incubated for an additional 21 days. The colonies in each well were stained with 0.005% crystal violet in 20% ethanol, counted and photographed. All assays were run in triplicate, and results presented are the average of three individual experiments.

For assay [16], the system named is H2AT120p in DU145 cells. Nature of the assay: Cellular H2AT120p by western blotting and immunostaining. In kind it is cell-based, human. The procedure:
To this end, Applicants' inhouse small-molecule library of 5,000 compounds was screened. […] To evaluate their cellular effects, DU145 cells were treated with the compounds in the concentration range of […] for 24 hr. […] Thus, although Applicants cannot exclude the possibility that other kinases that were not included in the selectivity screen might be affected, B32B3 can be defined as a highly specific VprBP inhibitor at present.
The levels of VprBP and H2AT120p in tumors tissues were determined in FDA human tumor organ tissue microarray, which includes 16 types of organ cancer with matched or unmatched adjacent normal tissue (US Biomax, Inc). The formalin-fixed, paraffin-embedded sections were blocked by treating with blocking reagent (50 mM Tris-HCl, pH 7.5, 150 mM NaCl, 0.3% Triton X-100, and 5% normal goat serum) for 30 min at room temperature and incubated with VprBP and H2AT120p antibodies at 4° C. overnight. Immunodetection was performed using ABC reagent (Vectorstain). DAB (Vector Lab) was used for color development and hematoxylin (Sigma) was used for counterstaining. The intensity and distribution patterns of staining were evaluated by semiquantitative immunohistochemical assessment. The intensity of staining was graded from − to +++ (−, no staining; +, weak staining; ++, moderate staining; and +++, strong staining) The distribution of staining was classified from 0 to 3 (0, 0-20%; 1, 21-50%; 2, 51-80%; 3, 81-100%). For immunofluorescence of DU145 cells, cells were treated with DMSO or B32B3 (0.5 μM) for 24 h and fixed with 4% paraformaldehyde for 15 min. The corresponding samples were permeabilized with 0.3% Triton X-100 for 15 min and immunostained with H2AT120p antibody.
A general note: Immunoblotting shows a protein as a band on a membrane.

Assay [17] deals with RSK2 (Homo sapiens, UniProt P51812). The experiment in a line: Kinase selectivity panel. The assay is classed as biochemical.

PKN2, sequence (Q16513 whole entry): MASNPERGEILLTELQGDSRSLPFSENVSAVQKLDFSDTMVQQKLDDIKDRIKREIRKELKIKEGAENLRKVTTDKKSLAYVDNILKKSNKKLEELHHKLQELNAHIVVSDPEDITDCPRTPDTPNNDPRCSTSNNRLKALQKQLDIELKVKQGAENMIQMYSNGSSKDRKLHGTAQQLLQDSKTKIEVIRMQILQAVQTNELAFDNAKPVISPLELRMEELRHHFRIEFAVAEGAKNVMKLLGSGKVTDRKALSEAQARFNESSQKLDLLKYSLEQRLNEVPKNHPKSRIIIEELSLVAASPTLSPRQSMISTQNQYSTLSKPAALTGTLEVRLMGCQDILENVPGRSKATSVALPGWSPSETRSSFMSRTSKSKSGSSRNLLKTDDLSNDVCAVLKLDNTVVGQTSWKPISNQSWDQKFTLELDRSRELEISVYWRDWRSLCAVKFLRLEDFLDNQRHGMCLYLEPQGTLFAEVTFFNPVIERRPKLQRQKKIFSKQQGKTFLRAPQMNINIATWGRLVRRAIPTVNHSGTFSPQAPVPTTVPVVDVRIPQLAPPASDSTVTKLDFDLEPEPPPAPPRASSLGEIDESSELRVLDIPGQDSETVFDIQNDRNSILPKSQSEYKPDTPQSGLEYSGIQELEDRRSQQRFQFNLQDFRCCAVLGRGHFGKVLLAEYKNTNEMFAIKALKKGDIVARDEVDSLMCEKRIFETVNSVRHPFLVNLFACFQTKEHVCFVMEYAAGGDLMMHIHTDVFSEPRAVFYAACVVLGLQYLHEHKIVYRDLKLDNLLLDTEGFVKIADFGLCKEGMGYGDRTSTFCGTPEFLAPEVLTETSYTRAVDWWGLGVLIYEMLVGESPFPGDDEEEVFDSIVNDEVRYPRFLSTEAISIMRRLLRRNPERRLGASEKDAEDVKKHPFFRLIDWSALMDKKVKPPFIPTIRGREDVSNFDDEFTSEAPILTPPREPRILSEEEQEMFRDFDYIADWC
CSNK1D, sequence (P48730 whole entry): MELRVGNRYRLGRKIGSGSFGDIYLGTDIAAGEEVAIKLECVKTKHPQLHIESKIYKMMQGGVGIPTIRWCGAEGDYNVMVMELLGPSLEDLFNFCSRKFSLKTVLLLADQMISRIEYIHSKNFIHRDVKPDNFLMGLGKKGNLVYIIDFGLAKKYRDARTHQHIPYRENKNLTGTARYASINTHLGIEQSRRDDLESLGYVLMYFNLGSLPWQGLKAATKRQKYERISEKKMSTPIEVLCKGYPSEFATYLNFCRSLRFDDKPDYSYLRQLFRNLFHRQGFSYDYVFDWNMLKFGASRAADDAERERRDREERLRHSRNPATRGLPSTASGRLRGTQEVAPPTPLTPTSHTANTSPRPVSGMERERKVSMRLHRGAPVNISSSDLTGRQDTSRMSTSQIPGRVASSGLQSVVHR
AKT3, sequence (Q9Y243 whole entry): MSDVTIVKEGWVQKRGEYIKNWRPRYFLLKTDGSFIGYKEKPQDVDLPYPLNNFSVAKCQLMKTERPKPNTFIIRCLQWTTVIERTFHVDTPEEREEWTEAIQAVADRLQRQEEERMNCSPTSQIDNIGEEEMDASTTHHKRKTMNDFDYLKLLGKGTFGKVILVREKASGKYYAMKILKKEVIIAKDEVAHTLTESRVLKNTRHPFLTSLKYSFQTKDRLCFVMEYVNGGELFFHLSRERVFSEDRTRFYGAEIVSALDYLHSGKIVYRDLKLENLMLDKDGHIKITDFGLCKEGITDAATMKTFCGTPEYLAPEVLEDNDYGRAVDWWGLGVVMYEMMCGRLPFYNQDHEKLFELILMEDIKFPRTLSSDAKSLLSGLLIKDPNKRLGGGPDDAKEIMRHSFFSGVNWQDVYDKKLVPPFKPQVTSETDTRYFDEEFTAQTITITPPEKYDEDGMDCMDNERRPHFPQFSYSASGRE
AURKA, sequence (O14965 whole entry): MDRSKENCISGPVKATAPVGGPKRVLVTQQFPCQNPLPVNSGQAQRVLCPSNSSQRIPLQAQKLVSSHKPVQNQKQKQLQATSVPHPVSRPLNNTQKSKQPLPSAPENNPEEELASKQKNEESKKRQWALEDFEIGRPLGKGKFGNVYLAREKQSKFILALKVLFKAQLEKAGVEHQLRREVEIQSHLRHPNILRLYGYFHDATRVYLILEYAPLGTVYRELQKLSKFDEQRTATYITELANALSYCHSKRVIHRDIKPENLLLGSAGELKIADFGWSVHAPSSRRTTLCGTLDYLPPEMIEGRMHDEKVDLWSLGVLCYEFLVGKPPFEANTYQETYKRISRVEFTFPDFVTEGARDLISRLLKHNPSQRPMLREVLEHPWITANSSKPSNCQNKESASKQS
HCK, sequence (P08631 whole entry): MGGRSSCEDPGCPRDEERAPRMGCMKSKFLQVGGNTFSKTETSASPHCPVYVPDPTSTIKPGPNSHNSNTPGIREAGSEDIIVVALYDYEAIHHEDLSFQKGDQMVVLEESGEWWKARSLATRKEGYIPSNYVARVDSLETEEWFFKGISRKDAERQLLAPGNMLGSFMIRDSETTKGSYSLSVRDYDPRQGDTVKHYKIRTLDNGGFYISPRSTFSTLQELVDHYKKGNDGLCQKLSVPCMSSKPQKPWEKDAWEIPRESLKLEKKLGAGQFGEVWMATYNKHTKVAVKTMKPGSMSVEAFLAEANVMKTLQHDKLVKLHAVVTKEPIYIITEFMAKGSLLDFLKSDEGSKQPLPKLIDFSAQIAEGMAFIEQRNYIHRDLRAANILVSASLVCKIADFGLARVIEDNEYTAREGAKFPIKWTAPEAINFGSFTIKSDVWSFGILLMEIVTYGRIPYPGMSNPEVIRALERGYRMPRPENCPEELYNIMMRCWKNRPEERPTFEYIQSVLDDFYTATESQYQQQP
PKM2, sequence (P14618 whole entry): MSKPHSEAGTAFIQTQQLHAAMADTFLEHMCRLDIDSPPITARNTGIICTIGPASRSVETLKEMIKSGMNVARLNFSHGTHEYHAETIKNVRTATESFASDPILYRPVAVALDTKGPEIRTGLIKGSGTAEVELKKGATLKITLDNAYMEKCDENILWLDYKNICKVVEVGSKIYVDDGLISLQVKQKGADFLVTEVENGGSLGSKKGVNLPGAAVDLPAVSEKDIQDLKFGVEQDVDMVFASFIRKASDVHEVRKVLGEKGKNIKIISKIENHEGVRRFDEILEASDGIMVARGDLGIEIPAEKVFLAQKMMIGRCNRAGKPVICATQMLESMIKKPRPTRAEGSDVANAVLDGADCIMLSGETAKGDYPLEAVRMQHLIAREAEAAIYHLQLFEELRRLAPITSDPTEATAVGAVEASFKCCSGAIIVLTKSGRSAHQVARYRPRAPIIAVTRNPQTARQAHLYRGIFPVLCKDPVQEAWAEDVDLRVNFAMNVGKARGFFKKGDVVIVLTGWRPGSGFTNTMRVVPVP
AKT1, sequence (P31749 whole entry): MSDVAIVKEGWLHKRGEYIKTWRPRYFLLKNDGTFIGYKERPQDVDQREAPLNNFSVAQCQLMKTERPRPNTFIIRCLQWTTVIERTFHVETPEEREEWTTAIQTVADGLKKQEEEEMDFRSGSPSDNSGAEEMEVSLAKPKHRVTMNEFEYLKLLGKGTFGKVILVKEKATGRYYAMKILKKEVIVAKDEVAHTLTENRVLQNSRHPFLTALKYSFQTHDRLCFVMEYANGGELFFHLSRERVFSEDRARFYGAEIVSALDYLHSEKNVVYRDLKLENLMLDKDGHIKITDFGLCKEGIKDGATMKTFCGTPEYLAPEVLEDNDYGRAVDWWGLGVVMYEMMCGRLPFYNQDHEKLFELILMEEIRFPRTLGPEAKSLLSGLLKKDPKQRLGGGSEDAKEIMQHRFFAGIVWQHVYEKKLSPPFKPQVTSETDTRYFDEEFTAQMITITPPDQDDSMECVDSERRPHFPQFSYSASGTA
PLK1, sequence (P53350 whole entry): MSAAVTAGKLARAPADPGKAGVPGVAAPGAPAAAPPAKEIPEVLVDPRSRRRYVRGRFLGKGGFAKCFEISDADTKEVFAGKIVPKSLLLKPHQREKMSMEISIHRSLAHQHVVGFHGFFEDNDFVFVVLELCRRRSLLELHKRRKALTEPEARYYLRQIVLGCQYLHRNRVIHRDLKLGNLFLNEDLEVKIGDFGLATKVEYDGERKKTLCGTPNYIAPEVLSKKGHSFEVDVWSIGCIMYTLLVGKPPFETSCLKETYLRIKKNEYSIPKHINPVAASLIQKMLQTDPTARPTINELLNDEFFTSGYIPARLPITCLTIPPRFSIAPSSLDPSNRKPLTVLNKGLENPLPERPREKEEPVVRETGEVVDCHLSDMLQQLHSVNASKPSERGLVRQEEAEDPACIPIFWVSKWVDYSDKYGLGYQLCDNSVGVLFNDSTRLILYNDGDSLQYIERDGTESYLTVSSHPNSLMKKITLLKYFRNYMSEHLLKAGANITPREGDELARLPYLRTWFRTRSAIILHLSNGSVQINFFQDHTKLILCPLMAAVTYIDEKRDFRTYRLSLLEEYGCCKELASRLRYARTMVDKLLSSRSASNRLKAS
AURKB, sequence (Q96GD4 whole entry): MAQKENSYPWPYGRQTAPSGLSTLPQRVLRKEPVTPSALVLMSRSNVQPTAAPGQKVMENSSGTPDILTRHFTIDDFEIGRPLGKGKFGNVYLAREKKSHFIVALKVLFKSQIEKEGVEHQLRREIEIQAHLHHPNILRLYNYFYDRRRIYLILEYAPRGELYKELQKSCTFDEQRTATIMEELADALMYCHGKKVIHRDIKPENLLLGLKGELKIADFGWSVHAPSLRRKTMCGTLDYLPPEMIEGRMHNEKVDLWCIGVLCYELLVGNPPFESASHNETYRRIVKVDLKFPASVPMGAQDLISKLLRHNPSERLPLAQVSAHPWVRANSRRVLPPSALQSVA

Consider `c1ccc2c(CNNc3ncnc4sc5c(c34)CCCC5)c[nH]c2c1` [B32B3], for which the IC50 in assay [1], in assay [3], in assay [4], in assay [6], in [7] and in [8] was more than 10 µM in each case. Besides, the IC50 in assay [9], in assay [10], in assay [11], in assay [12], in assay [13] and in assay [14] was more than 10 µM throughout. Besides, the IC50 in assay [16] (Homo sapiens, DU-145, DU145 cells, 24 hr, 0-5 mM, read-out: IC50 for inhibition of H2AT120p) amounted to 0.5 µM; in assay [17] it was 8.6 µM. In addition, the “Expression of VprBP target genes” value in assay [2] is listed as “higher expression of VprBP target genes”. In addition, in [5], the “Reduction of H2AT120p at promoter and coding regions of target genes” value is 70%. Moreover, the “VprBP levels at promoter and coding regions of target genes” value in assay [5] was “did not alter”. For the same compound, the “Effect on cell proliferation / cell growth” value in assay [15] was “inhibition of cell proliferation”. Further, the “Potency in cells overexpressing VprBP” value in [16] (DU145 cells overexpressing VprBP, 24 h) is recorded as “considerably less potent”. Further, the “Decrease in IC50 (H2AT120p) upon knockdown of VprBP” value in assay [16] (VprBP-knockdown DU145 cells, 24 h) was “circa 2 fold”.
